Measurements taken from patent publication US20260055097A9, “NRF2 PROTEIN DEGRADERS” (Ganymede Oncology, Inc., priority 2022, published 2026).

Assays:
Assay type in all cases: cell-based
Nrf2 [1] = biological target: T1, Nrf2 (Homo sapiens, UniProt Q16236); experiment: Protein degradation assay in huH1 cells by Western blot; design: tested for protein degradation in huH1 cells; host or cells: huH1 (Huh1) human hepatoma cells
T1 sequence (Q16236 1-605): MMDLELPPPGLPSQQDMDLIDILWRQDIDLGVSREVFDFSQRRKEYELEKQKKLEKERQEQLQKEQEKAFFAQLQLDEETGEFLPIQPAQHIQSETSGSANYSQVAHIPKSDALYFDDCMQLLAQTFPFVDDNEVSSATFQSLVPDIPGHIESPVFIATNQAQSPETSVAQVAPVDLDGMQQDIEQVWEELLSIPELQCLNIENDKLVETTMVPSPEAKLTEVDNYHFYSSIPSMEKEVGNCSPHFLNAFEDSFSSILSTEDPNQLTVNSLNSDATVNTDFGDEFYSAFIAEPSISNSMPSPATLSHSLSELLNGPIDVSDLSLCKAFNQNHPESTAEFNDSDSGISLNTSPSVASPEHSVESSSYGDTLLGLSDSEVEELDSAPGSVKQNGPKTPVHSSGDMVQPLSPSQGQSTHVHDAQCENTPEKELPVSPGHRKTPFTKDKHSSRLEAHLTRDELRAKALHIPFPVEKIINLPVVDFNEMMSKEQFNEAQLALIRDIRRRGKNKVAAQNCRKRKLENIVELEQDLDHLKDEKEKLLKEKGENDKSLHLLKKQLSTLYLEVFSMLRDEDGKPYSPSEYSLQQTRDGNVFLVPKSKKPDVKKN
Method: Representative Compounds of the Disclosure were tested for protein degradation in huH1 cells (Vendor: JCRB: Cat #JCRB0199; Description: Human hepatoma) by Western blot analysis according to the following general protocol.
Day 0: Plated the Huh1 cells into 10-cm dishes (1.5×10^6/dish)
Day 1: Treated the cells with compounds at five concentrations, e.g., 0.01 μM, 0.04 μM, 0.11 μM, 0.33 μM and 1 μM; or 0.4 μM, 1.1 μM, 3.3 μM, 10 μM, and 30 μM.
Day 4: Harvested the cell pellets, spilt 1/3 of the pellet to extract RNA by Nucleospin RNA plus kit and measure Nrf2 and GPX2 by RT-PCR, the remaining 2/3 of the pellet to run Western blot analysis.
• a) Cell samples were lysed with lysis buffer (1×Cell lysis buffer added Protease inhibitor and phosphatase inhibitor) on ice for 5˜10 min and spun at 15,000 rpm in an Eppendorf microfuge for 15 min at 4° C. • b) The protein supernatant was collected in a new 1.5 ml tube and the protein concentrations were determined by the Pierce BCA kit (Thermo #23225). • c) Mixed protein sample with 5×SDS-PAGE loading buffer. • d) Boiled for 5 min. • e) Cooled at RT or on ice for 5 min. • f) Flash spun to bring down condensation prior to loading gel.
• a) After flash spinning the samples, 20 μg protein were loaded into the wells. • b) Using SDS-PAGE running buffer. • c) Run with Constant Voltage (70 V) for 1.5-2 hr. Membrane transfer • a) Assembled “sandwich” for Invitrogen iBlot. • b) Transferred for 9 min using P0 program. • c) Immersed membrane in Odyssey blocking buffer or 5% BSA for at least 1 hr.
• a) Incubated with 1st Antibody 1:500 diluted in blocking buffer overnight at 4° C. • b) Washed 4×15 min with 0.05-0.1% Tween 20 in TBS. • c) Incubated with secondary antibody 1:10K diluted in blocking buffer for at least 1 hr at RT. • d) Washed 3×15 min with 0.05-0.1% Tween 20 in TBS. • e) Detected with ODYSSEY (Li—COR) The results are provided in Table 5.

A549 = experiment: Cancer cell viability, A549 (CellTiter-Glo); details: Homo sapiens, 72 h, A549 cells, 3 days, read-out: Cellular IC50 (μM) A549
Procedure, shortened: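 A549 and/or LK-2 lung carcinoma cells seeded overnight (20 K/mL A549; 35 K/mL LK-2), then exposed to compound for 3 days. Viability read as CellTiter-Glo luminescence after 15 min lysis; data fitted to curves.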

Nrf2 [2] = biological target: T1, Nrf2; experiment: Nrf2 degradation in A549 HiBiT-Nrf2 cells, Nano-Glo HiBiT lytic detection (HiBiT readout); design: host or cells: A549 HiBiT-Nrf2 cells (engineered line bought from Promega)
Procedure, shortened: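 A549 HiBiT-Nrf2 cells seeded at 5,000 cells/well in Ham's F-12 with 10% FBS, then treated next day for 6 h and 20 h at 37 °C, 5% CO2. Nrf2 degradation read by Nano-Glo HiBiT lytic luminescence after 30 min at room temperature; staurosporine served as control.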

LK-2 = experiment: Cancer cell viability, LK-2 (CellTiter-Glo); details: Homo sapiens, LK-2, 72 h, LK-2 cells, 3 days, read-out: Cellular IC50 (μM) LK-2
Method: Representative Compounds of the Disclosure were tested in A549 (Vendor: ATCC; Cat #CCL-185; Description: lung, carcinoma) and/or LK-2 (Vendor: Riken; Cat #RCB1970; Description: lung, squamous cell carcinoma) cellular viability assays according to the following general protocol. • 1. Observed the cells under microscope. • 2. Aspirated the media and added 5 mL trypsin and incubate for 3 mins. • 3. Added 10 mL fresh media and harvested all the cells in to 15 mL tubes. • 4. Centrifuged the cells at 1000 rpm for 5 mins. • 5. Re-suspended the cells with 11 mL media and took 1 mL to determine the cell number and viability. • 6. Prepared cells suspension at 20 K/mL (A549) or 35 K/mL (LK-2) • 7. Seeded the cells into 96-well plate and incubated for overnight. • 8. Added compounds into each well with a HPD300 machine (nine three-fold dilutions typically starting at 30 µM final concentration) and incubated for 3 days. • 9. After 3 days, took out the plates from the incubator and observed the cells under microscope. • 10. Passed a film at the bottom of the plates. • 11. Equilibrated the plate and its contents at room temperature for approximately 30 minutes. • 12. Thawed the CellTiter-Glo® Buffer and equilibrated to room temperature prior to use. • 13. Equilibrated the lyophilized CellTiter-Glo® Substrate to room temperature prior to use. • 14. Transferred 100 ml of CellTiter-Glo® Buffer into the amber bottle containing CellTiter-Glo® Substrate to reconstituted the lyophilized enzyme/substrate mixture. • 15. Mixed by gently vortexing, swirling or inverting the contents to obtain a homogeneous solution. • 16. Added 100 μL CellTiter-Glo® Reagent into each well • 17. Mixed contents for 15 minutes on an orbital shaker to induce cell lysis. • 18. Recorded luminescence with EnSpire machine. • 19. Passed the raw data into the file and analyzed the data with XLfit software.

[3] = X marks the class >10 μM, read-out: DC50 huHI1 cells >10 μM
[4] = 6 h, read-out: DC50 (nM) at 6 h
[5] = 20 h, read-out: DC50 (nM) at 20 h

Row | Compound | DC50 (Nrf2 [1]; [3]) [µM] | DC50 (Nrf2 [1]; X marks the class <100 nM, read-out: DC50 huHI1 cells <100 nM) [µM] | IC50 (A549) [µM] | DC50 (Nrf2 [2]; [4]) [nM] | DC50 (Nrf2 [2]; [5]) [nM] | IC50 (LK-2) [µM]
1 | Cc1ccccc1C(=O)N1CCc2cc(-c3nc(NC(=O)Cc4cccc(OCCOCCOCCOCCNc5cccc6c5C(=O)N(C5CCC(=O)NC5=O)C6=O)c4)sc3C)ccc21 (stereo not shown) [Cpd. No. 3, 2-(3-(2-(2-(2-(2-((2-(2,6-dioxopiperidin-3-yl)-1,3-dioxoisoindolin-4-yl)amino)ethoxy)ethoxy)ethoxy)ethoxy)phenyl)-N-(5-methyl-4-(1-(2-methylbenzoyl)indolin-5-yl)thiazol-2-yl)acetamide] | > 10 |  |  |  |  | 
2 | Cc1ccccc1C(=O)N1CCc2cc(-c3nc(NC(=O)Cc4cccc(OCCOCCOCCOCCOCCNc5cccc6c5C(=O)N(C5CCC(=O)NC5=O)C6=O)c4)sc3C)ccc21 (stereo not shown) [Cpd. No. 4, 2-(3-((14-((2-(2,6-dioxopiperidin-3-yl)-1,3-dioxoisoindolin-4-yl)amino)-3,6,9,12-tetraoxatetradecyl)oxy)phenyl)-N-(5-methyl-4-(1-(2-methylbenzoyl)indolin-5-yl)thiazol-2-yl)acetamide] | > 10 |  |  |  |  | 
3 | Cc1ccccc1C(=O)N1CCc2cc(-c3nc(NC(=O)Cc4cccc(OCCOCCOCCOCCOCCOCCNc5cccc6c5C(=O)N(C5CCC(=O)NC5=O)C6=O)c4)sc3C)ccc21 (stereo not shown) [Cpd. No. 5, 2-(3-((17-((2-(2,6-dioxopiperidin-3-yl)-1,3-dioxoisoindolin-4-yl)amino)-3,6,9,12,15-pentaoxaheptadecyl)oxy)phenyl)-N-(5-methyl-4-(1-(2-methylbenzoyl)indolin-5-yl)thiazol-2-yl)acetamide] | > 10 |  |  |  |  | 
4 | Cc1ccccc1C(=O)N1CCc2cc(-c3nc(NC(=O)Cc4cccc(OCCOCCOCCOc5cccc6c5C(=O)N(C5CCC(=O)NC5=O)C6=O)c4)sc3C)ccc21 (stereo not shown) [Cpd. No. 7, 2-(3-(2-(2-(2-((2-(2,6-dioxopiperidin-3-yl)-1,3-dioxoisoindolin-4-yl)oxy)ethoxy)ethoxy)ethoxy)phenyl)-N-(5-methyl-4-(1-(2-methylbenzoyl)indolin-5-yl)thiazol-2-yl)acetamide] |  | < 0.1 |  |  |  | 
5 | Cc1ccccc1C(=O)N1CCc2cc(-c3nc(NC(=O)Cc4cccc(OCCOCCOCCOCCOc5cccc6c5C(=O)N(C5CCC(=O)NC5=O)C6=O)c4)sc3C)ccc21 (stereo not shown) [Cpd. No. 8, 2-(3-(2-(2-(2-(2-((2-(2,6-dioxopiperidin-3-yl)-1,3-dioxoisoindolin-4-yl)oxy)ethoxy)ethoxy)ethoxy)ethoxy)phenyl)-N-(5-methyl-4-(1-(2-methylbenzoyl)indolin-5-yl)thiazol-2-yl)acetamide] | > 10 |  |  |  |  | 
6 | Cc1ccccc1C(=O)N1CCc2cc(-c3nc(NC(=O)Cc4cccc(OCCN5CCN(c6cccc7c6C(=O)N(C6CCC(=O)NC6=O)C7=O)CC5)c4)sc3C)ccc21 (stereo not shown) [Cpd. No. 31, 2-(3-(2-(4-(2-(2,6-dioxopiperidin-3-yl)-1,3-dioxoisoindolin-4-yl)piperazin-1-yl)ethoxy)phenyl)-N-(5-methyl-4-(1-(2-methylbenzoyl)indolin-5-yl)thiazol-2-yl)acetamide] |  |  | > 30 | > 3000 | > 3000 | > 30
7 | Cc1sc(NC(=O)Cc2cccc(OCCOCCNc3cccc4c3C(=O)N(C3CCC(=O)NC3=O)C4=O)c2)nc1-c1ccc2c(c1)CCN2C(=O)c1cncn1C (stereo not shown) [Cpd. No. 35, 2-(3-(2-(2-((2-(2,6-dioxopiperidin-3-yl)-1,3-dioxoisoindolin-4-yl)amino)ethoxy)ethoxy)phenyl)-N-(5-methyl-4-(1-(1-methyl-1H-imidazole-5-carbonyl)indolin-5-yl)thiazol-2-yl)acetamide] |  |  | 0.03 | < 300 | > 3000 | 0.01
8 | Cc1sc(NC(=O)Cc2ccc(F)c(OCCOCCNc3cccc4c3C(=O)N(C3CCC(=O)NC3=O)C4=O)c2)nc1-c1ccc2c(c1)CCN2C(=O)C1CC1 (stereo not shown) [Cpd. No. 36, N-(4-(1-(cyclopropanecarbonyl)indolin-5-yl)-5-methylthiazol-2-yl)-2-(3-(2-(2-((2-(2,6-dioxopiperidin-3-yl)-1,3-dioxoisoindolin-4-yl)amino)ethoxy)ethoxy)-4-fluorophenyl)acetamide] |  |  | 0.06 | < 300 | < 300 | 0.03
9 | Cc1sc(NC(=O)Cc2ccc(F)c(OCCOCCNc3cccc4c3C(=O)N(C3CCC(=O)NC3=O)C4=O)c2)nc1-c1ccc2c(c1)CCN2C(=O)c1cncn1C (stereo not shown) [Cpd. No. 37, 2-(3-(2-(2-((2-(2,6-dioxopiperidin-3-yl)-1,3-dioxoisoindolin-4-yl)amino)ethoxy)ethoxy)-4-fluorophenyl)-N-(5-methyl-4-(1-(1-methyl-1H-imidazole-5-carbonyl)indolin-5-yl)thiazol-2-yl)acetamide] |  |  | 0.04 | < 300 | < 300 | 0.01
10 | Cc1sc(NC(=O)Cc2cccc(OCCCCCNc3cccc4c3C(=O)N(C3CCC(=O)NC3=O)C4=O)c2)nc1-c1ccc2c(c1)CCN2C(=O)C1CC1 (stereo not shown) [Cpd. No. 40, N-(4-(1-(cyclopropanecarbonyl)indolin-5-yl)-5-methylthiazol-2-yl)-2-(3-((5-((2-(2,6-dioxopiperidin-3-yl)-1,3-dioxoisoindolin-4-yl)amino)pentyl)oxy)phenyl)acetamide] |  |  | 0.11 | < 300 | < 300 | 0.08
